Source: article PMC4059401 (Xenobiotica; the fate of foreign compounds in biological …, 2013)

Experiments:
CYP2D6 = CYP2D6 (Homo sapiens, UniProt P10635); experiment: UV-visible spectral binding titration, purified enzyme
CYP3A4 = CYP3A4 (Homo sapiens, UniProt P08684); experiment: metabolite formation by recombinant CYP Supersomes, LC/MS; type: cell-based
CYP1A2 = CYP1A2 (Homo sapiens, UniProt P05177); experiment: as above; type: cell-based
Sequence of CYP1A2 (P16435 2-677): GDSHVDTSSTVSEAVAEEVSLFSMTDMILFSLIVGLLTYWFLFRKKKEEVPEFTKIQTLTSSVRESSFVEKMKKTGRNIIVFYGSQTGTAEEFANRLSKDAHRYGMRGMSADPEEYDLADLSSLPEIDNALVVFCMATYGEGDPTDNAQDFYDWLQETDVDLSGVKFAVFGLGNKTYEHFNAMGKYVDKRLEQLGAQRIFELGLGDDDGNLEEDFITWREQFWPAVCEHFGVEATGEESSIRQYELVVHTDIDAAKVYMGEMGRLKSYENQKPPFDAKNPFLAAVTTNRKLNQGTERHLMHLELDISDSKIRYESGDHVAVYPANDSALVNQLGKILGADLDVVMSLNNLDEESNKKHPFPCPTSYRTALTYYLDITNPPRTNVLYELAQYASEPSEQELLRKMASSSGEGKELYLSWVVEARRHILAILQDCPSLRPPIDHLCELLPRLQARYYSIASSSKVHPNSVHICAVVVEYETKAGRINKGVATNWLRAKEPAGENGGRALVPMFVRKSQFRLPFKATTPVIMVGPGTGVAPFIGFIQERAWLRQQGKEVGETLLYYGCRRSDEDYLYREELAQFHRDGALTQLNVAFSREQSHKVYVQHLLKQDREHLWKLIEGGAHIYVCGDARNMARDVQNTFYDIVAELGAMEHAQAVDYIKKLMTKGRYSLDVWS
Sequence of CYP1A2 (P05177 2-516): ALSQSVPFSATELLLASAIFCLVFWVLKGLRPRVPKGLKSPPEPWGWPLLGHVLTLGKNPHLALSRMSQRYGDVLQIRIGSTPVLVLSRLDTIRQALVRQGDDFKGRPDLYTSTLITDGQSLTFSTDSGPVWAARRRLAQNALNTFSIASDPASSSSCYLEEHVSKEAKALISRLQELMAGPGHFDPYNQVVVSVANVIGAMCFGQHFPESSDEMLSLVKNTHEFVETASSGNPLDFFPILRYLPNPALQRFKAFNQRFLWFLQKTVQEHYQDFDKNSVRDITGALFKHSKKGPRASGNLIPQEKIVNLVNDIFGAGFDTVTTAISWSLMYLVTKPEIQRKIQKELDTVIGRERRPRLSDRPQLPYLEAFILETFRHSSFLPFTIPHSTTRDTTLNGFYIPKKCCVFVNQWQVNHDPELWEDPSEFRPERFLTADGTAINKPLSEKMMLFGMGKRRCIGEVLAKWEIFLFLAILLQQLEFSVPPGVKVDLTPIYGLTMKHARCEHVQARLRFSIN

Sequence of CYP3A4 (P16435 2-677): as the sequence (P16435 2-677) above
Sequence of CYP3A4 (P08684 2-503): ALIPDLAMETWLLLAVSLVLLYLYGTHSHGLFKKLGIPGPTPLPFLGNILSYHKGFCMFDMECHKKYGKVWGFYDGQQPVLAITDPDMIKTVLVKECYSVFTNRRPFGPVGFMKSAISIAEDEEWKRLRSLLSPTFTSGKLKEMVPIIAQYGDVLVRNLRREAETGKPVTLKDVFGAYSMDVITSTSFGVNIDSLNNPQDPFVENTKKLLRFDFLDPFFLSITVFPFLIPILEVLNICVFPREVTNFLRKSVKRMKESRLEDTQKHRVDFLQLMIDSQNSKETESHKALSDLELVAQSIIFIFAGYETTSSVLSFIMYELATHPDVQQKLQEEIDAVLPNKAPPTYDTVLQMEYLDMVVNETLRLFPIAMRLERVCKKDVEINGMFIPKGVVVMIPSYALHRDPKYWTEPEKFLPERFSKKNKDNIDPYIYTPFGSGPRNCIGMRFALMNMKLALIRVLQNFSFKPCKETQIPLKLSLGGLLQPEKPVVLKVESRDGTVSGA
Sequence of CYP2D6 (P10635 whole entry): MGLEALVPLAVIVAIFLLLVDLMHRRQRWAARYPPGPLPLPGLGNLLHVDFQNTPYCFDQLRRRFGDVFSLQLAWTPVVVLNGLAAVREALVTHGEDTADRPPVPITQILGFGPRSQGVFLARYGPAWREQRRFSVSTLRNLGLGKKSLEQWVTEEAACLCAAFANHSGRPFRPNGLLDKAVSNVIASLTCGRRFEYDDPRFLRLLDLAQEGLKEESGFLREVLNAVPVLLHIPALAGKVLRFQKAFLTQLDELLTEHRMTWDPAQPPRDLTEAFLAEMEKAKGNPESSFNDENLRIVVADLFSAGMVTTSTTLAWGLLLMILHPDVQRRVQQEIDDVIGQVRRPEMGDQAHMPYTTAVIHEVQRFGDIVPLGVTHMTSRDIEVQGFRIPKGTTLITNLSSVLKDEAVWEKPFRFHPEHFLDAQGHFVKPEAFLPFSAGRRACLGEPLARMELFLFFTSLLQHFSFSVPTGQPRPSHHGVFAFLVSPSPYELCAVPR

`CCN(CC)CCNC(=O)c1cc(Cl)c(N)cc1OC` [Metoclopramide, 4-amino-5-chloro-N-(2-(diethylamino)ethyl)-2-methoxybenzamide] was tested, and the Kd (CYP2D6) was 9.56 ± 1.09 µM, the “metabolite formation by recombinant CYP Supersomes, LC/MS” value (CYP3A4) was “All three monooxygenation products (M4a, M4b, M4c) were formed by CYP3A4 and CYP2D6” and the “metabolite formation by recombinant CYP Supersomes, LC/MS” value (CYP1A2) was “CYPs 1A2, 2C9, 2C19, and 3A4 also metabolized metoclopramide”.
